Blank lines part the entries; values can stand above or below the molecule they belong to.
How the values were obtained:
B6D2F1 mice [1] = assay: Peripheral blood cell recovery (complete blood cell count) after Ptx treatment
Description: Mice: B6D2F1 mice female, 6-8 weeks old were purchased from Jackson Laboratory, and were maintained in a pathogen-free facility at Memorial Sloan-Kettering Cancer Center (MSKCC, New York, N.Y.) with access to fresh water and food ad libitum. Certified Rodent Diet #5053 (Lab Diet) was used. All animal experiments were approved by the MSKCC Animal Care Committee. Treatments: Ptx was intraperitoneally injected (i.p) at 30 mg/kg/day over […] with cumulative dose of 90-120 mg/kg to mice. Neupogen (G-CSF) was given i.v. at 80 microg/kg at 24 hrs after the last dose of Ptx. […] Mice were weighed each day. Blood was taken from the tail vein for complete blood cell (CBC) counts. Sacrifice was performed by the CO2 method.
Complete Blood Cell Count: Approximately 20 microL of blood was taken from the tail vein after warming, for assessment of CBC by automated differential analysis using the Hemavet instrument after instrument standardization.
Statistical Analysis: Data are presented as mean percentage ±SD or mean counts ±SD. To identify the appropriate dose of Ptx, ANCOVA was used to examine significance of variation in average cell counts or percentage of change from baseline across all days for the cell type of interest in a treatment group and possible within-mouse correlation was adjusted by including mouse ID as a covariate. If overall significance by ANCOVA was shown, Tukey's method was used to determine between-day significance. To assess significance of variation across dose groups (including untreated) over the treatment interval, two-way ANOVA was used and then Bonferroni method was used to adjust for between-group multiple comparisons. In the studies of blood cell recovery, the decrease in cell count was calculated as compared to the corresponding baseline during the treatment for each mouse. The averages of the group decreases across different treatment groups were compared using two-way ANOVA to determine significance. Two sample t-tests were used to compare the difference in average percentage change at a given time point between any two treatment groups. Tukey's or Bonferroni method was used to adjust p-values for multiple comparisons where appropriate. The analyses were carried out using GraphPad Prism software version 5.01. Additional information is provided in the text.
30 mg/kg/day Ptx was given over 3 consecutive days (90 mg/kg cumulative dose) to each group. […] The Ptx+G-CSF group received one dose of intravenous G-CSF (80 ug/kg), 24 hrs after the last Ptx dose. Changes in absolute numbers of leukocytes (white blood cell count) from baseline were evaluated from post-day 1 to post-day 8 after chemotherapy. For each mouse, percent change in counts from baseline was calculated. Change from baseline across days within a treatment group was assessed by ANCOVA and within-mouse correlation was included as appropriate. Paired t-tests were used to compare any two time-points. Differences among treatment groups across the experimental period were assessed by two-way

[2] = test system: Gr-1+ granulocytes/monocytes; assay: Flow cytometric oxidative burst (ROS) assay on peripheral blood ex vivo after Ptx; format: in vivo, mouse
Description: Flow Cytometric Oxidative Burst Assay: Peripheral blood was obtained by retro orbital bleeding; about 400 microL blood were collected into heparinized tubes. The respiratory burst assay was performed as described with modifications. Briefly, 100 microL blood aliquots were added to each tube, wash buffer or stimuli (opsonized E. coli, fMLP (N-formylmethionyl-leucyl-phenylalanine) were added at 20 microL. Tubes were incubated in a water bath at 37° C. for 10 mins, then 20 microL of dihydrorhodamine (DHR-123) was added and tubes were vortexed, and then incubated for another 10 mins. Red blood cells were lysed and removed after washing once. R-PE conjugated rat anti-mouse Ly-6G and Ly-6C (Gr-1, BD Biosciences) antibody was added in the presence of Mouse BD Fc Block (purified anti-mouse CD16/CD32 monoclonal antibody, 2.4G2, BD Biosciences) at 1 μg/million cells, and incubated at room temperature in the dark for 15 mins. Cells were washed; supernatants removed and 200 μL of DNA staining solution was added. The samples were analyzed by flow cytometer (FACSCalibur) using CellQuest. The initial gate was set with Gr-1 to identify granulocytes/monocytes; the percentage of responding cells was then analyzed with FlowJo software.
After brief exposure of whole blood to opsonized E. coli and the chemotactic peptide N-formyl-Met-Leu-Phe (fMLP) ex vivo, fluorescence of ROS positive cells was detected by the oxidation of the dihydrorhodamine substrate. Blood samples were collected from each group 4 days after the last dose of Ptx and again on post-day 11. […] Post-day 4 was 3 days after G-CSF injection for the Ptx+G-CSF group. The ROS responses of normal, untreated mice were also studied.

B6D2F1 mice [3] = assay: Paclitaxel-induced leukopenic mouse model, serial complete blood counts; format: in vivo
Description: Certified Rodent Diet #5053 (Lab Diet) was used. […] Mice were weighed each day. […] Sacrifice was performed by the CO2 method. […]
To determine the dose of Ptx required for induction of acute hematotoxicity that also permitted spontaneous recovery, fractionated dosing at 10 to 30 mg/kg was given 3 times every other day to groups of mice. After doses greater than 15 mg/kg were found effective, we compared cumulative doses of 60 and 90 mg/kg to untreated mice (n=4 each group). Serial CBCs were obtained from each mouse. Variation was evaluated by one-way ANCOVA and within mouse correlation was included as the covariate. Pair-wise differences were evaluated by Tukey's posttest. Treatment group variation was assessed by two-way ANOVA over the interval followed by between-group comparisons using Bonferroni posttests.

[4] = Ptx 90 mg/kg, MBG 6 mg/kg/day oral or G-CSF 80 ug/kg i.v. once

Duration of suppression of peripheral blood white blood cell counts below baseline levels (B6D2F1 mice [1]; mouse, in vivo): more than 8 days | Monocyte counts below baseline at lowest point (B6D2F1 mice [1]; mouse, in vivo): 77.6±13% | Leukocyte numbers compared to untreated mice (B6D2F1 mice [3]; cumulative Ptx dose 60 mg/kg): fewer leukocytes | Lymphocyte numbers compared to the untreated group (B6D2F1 mice [3]; cumulative Ptx dose 90 mg/kg): lower over days 3, 4, and 5 | Lymphocytes compared to baseline (B6D2F1 mice [3]; cumulative Ptx dose 90 mg/kg): lower on day 8 compared to baseline | Neutrophils compared to the untreated group (B6D2F1 mice [3]; cumulative Ptx dose 90 mg/kg (higher dose)): more reduced
Molecule: CC(=O)O[C@H]1C(=O)[C@@]2(C)[C@H]([C@H](OC(=O)c3ccccc3)[C@]3(O)C[C@H](OC(=O)[C@H](O)[C@@H](NC(=O)c4ccccc4)c4ccccc4)C(C)=C1C3(C)C)[C@]1(OC(C)=O)CO[C@@H]1C[C@@H]2O [Ptx, Paclitaxel]
Leukocyte levels by post-day 5 compared to earlier post-days (B6D2F1 mice [1]; [4]): Counts improved by post-day 5 and 8 compared to post-day 1 | Lymphocyte recovery time course relative to baseline (B6D2F1 mice [1]; [4]): baseline levels were not achieved, even by post-day 8 | Neutrophil recovery time course (B6D2F1 mice [1]; [4]): Baseline levels were achieved by post-day 8 | Decrease in neutrophil level on post-day 5, between groups (B6D2F1 mice [1]; early recovery period): greater | Unstimulated ROS production on post-day 11 compared to post-day 4 ([2]; mouse, in vivo): unchanged | ROS response to E. coli on post-day 11 compared to post-day 4 ([2]; p<0.0001): increased | ROS response to fMLP on post-day 11 compared to post-day 4 ([2]; p<0.0001): decreased | ROS response to E. coli compared to untreated mice ([2]; post-day 4): lower compared to untreated mice | Neutrophil counts across all days (B6D2F1 mice [3]; cumulative Ptx dose 60 mg/kg, ANCOVA, no pair-wise comparisons significant): overall drop in neutrophil counts across all days was significant | Leukocyte numbers compared to untreated mice (B6D2F1 mice [3]; cumulative Ptx dose 90 mg/kg): lower leukocyte numbers on days 3, 4, and 5 | Neutrophil counts compared to baseline (B6D2F1 mice [3]; cumulative Ptx dose 90 mg/kg): counts were significantly lower on days 4 and 5 compared to baseline | Changes in leukocyte numbers within group (B6D2F1 mice [3]; cumulative Ptx dose 90 mg/kg, one-way ANCOVA): produced significant changes in leukocyte numbers | Fractionated Ptx dose found effective for induction of acute hematotoxicity (B6D2F1 mice [3]; given 3 times every other day): greater than 15 mg/kg

B1: G-CSF: Neupogen (G-CSF) from Amgen; recombinant human G-CSF (protein, UniProt P09919 31-207, looked up)
Granulocyte …: TPLGPASSLPQSFLLKCLEQVRKIQGDGAALQEKLVSECATYKLCHPEELVLLGHSLGIPWAPLSSCPSQALQLAGCLSQLHSGLFLYQGLLQALEGISPELGPTLDTLQLDVADFATTIWQQMEELGMAPALQPTQGAMPAFASAFQRRAGGVLVASHLQSFLEVSYRVLRHLAQP
modifications: filgrastim, N-terminal methionine
Decline in leukocytes on post-day 2 (B6D2F1 mice [1]; Ptx 90 mg/kg, 24 hrs after G-CSF injection): not observed | Effect on Ptx-induced increase of platelet numbers (B6D2F1 mice [1]; mouse, in vivo): also not affected
